Data from patent publication US12161745B2, “Peptides and compositions for use in cosmetics” (LIPOTRUE, S.L., priority 2019, dated 2024).
Where a SMILES comes first, the peptide text is derived from it. The star is where a group is joined. Palmitoyl = CCCCCCCCCCCCCCCC(=O)*

Legend:
Format in all cases: cell-based
[1] = tested on: HEKa (Human Epidermal Keratinocytes, adult) cells; assay: MTT viability assay (cytotoxicity) in HEKa cells; conditions: 0.001-0.1 mg/mL, 24 h, vs basal state
Experimental: (§1) The cytotoxicity of peptide Pal-SEQ ID NO: 1-NH2 was analysed by means of viability assay in HEKa (Human Epidermal Keratinocytes, adult) and HDFa (Human Dermal Fibroblasts, adult) cells.
(§2) Cytotoxicity was assessed by means of the MTT assay. Briefly HEKa and HDFa cells were seeded in 96-well plates at a concentration of 1×10^5 cells/mL and incubated in Epilife Medium supplemented with 1% (v/v) EDGS and 1% (v/v) of Penicillin/Streptomycin (for HEKa cells) and Medium 106 supplemented with 2% (v/v) of Low Serum Growth Supplement (LSGS) (for HDFa cells) for 24 h at 37° C., 5% CO2 and saturated humidity. Cells were then treated with different concentrations of peptide Pal-SEQ ID NO: 1-NH2 (0.001 mg/mL, 0.005 mg/mL, 0.01 mg/mL, 0.05 mg/mL, and 0.1 mg/mL for HEKa cells; and 0.001 mg/mL, 0.005 mg/mL and 0.01 mg/mL for HDFa cells) in triplicates, for MTT evaluation. […] The plates were placed on a shaker for 5 minutes for complete solubilisation of the crystals and then the absorbance at 450 nm of each well was determined using the microplate reader Multiskan FC, which is directly proportional to the number of living cells in culture. Absorbance values were normalized using the data obtained for non-treated cells (basal state).

[2] = tested on: HDFa (Human Dermal Fibroblasts, adult) cells; assay: MTT viability assay (cytotoxicity) in HDFa cells; conditions: 0.001-0.01 mg/mL, 24 h, vs basal state
Experimental: as §1, §2

[3] = tested on: human organotypical skin explant cultures (hOSECs); assay: LDH cytotoxicity assay in human organotypical skin explant cultures
Experimental: (§3) In this case healthy and aged human organotypical skin explant cultures (hOSECs) were used as experimental systems.
(§4) The aged hOSEC was obtained by exposition of the healthy hOSEC to hydrocortisone (5 μg/mL) for the first five days of the study.
The total number of treatment groups was as follows: • 1. Control group (negative control): Untreated hOSEC. • 2. Aged hOSEC: hOSECs treated with hydrocortisone at 5 μg/mL (Abraham A, Roga G. (2014) Topical steroid-damaged skin. Indian J Dermatol. 59(5), 456-9.) • 3. Aged hOSEC+Product A (cream, this is, placebo): hOSECs treated with hydrocortisone at 5 μg/mL and incubated with product A (10 μL). • 4. […]
The LDH Cytotoxicity test is a colorimetric assay that quantitatively measures lactate dehydrogenase (LDH), a stable cytosolic enzyme that is released into the culture medium supernatant upon damage of the cytoplasmic membrane. The released LDH in culture medium supernatants is measured for 30 minutes coupled enzymatic reaction: LDH oxidizes lactate to pyruvate which then reacts with the tetrazolium salt WST-1 to form formazan. The increase in the amount of formazan measured in the culture supernatant directly correlates to the increase in the number of lysed cells (damage) in the skin explant. […]
The results of this assay were calculated considering the negative control, this is, untreated hOSEC as 100% of the LDH normal concentration.

[4] = tested on: human organotypical skin explant cultures (hOSECs); assay: Resazurin assay in human organotypical skin explant cultures; conditions: 5 μg/mL
Experimental: as §3, §4
The total number of treatment groups was as follows: • 1. Control group (negative control): Untreated hOSEC. • 2. Aged hOSEC: hOSECs treated with hydrocortisone at 5 μg/mL (Abraham A, Roga G. (2014) Topical steroid-damaged skin. Indian J Dermatol. 59(5), 456-9.) • 3. Aged hOSEC+Product A (cream, this is, placebo): hOSECs treated with hydrocortisone at 5 μg/mL and incubated with product A (10 μL). • 4. Aged hOSEC+Product B (cream with Pal-SEQ ID NO: 1-NH2 at a concentration of 0.005 mg/mL): hOSECs treated with hydrocortisone at 5 μg/mL and incubated with Product B (10 μL).
The total duration of the assay was of 10 days (days 1 to 10). Hydrocortisone was applied in the appropriate or corresponding groups each day on days 1 to 5. […]
For the resazurin assay, the skin explants were treated with 6 μM of resazurin in NaCl solution for 1 hour. […] The resorufin formed was quantified in a fluorometer plate reader.
The fluorescent signal was monitored using 530-560 nm excitation wavelength and 590 nm emission wavelength.
The results of the resazurin assay were calculated considering the negative control, untreated healthy hOSECs, as 100% viability. […]

reduction of Resorufin percentage with respect to the Control group [4] [%]	SMILES	viability of HEKa cells [1]	viability of HDFa cells [2]	toxicity deduced from LDH cytotoxicity assay and resazurin assay ([3]; cream with 0.005 mg/mL peptide on aged hOSEC)	adverse effect in hOSECs (LDH, plasma membrane damage) ([3]; hydrocortisone 5 μg/mL, days 1 to 5)
–	CCCCCCCCCCCCCCCC(=O)N[C@@H](Cc1c[nH]cn1)C(=O)N[C@@H](Cc1ccc(O)cc1)C(=O)N[C@@H](CCCNC(=N)N)C(=O)N[C@@H](C)C(N)=O [Pal-SEQ ID NO: 1-NH2, Pal-His-Tyr-Arg-Ala-NH2] (Palmitoyl-HYRA-NH2)	did not alter viability	did not alter viability	not toxic	–
10	C[C@]12CCC(=O)C=C1CC[C@@H]1[C@@H]2[C@@H](O)C[C@@]2(C)[C@H]1CC[C@]2(O)C(=O)CO [hydrocortisone, reference compound]	–	–	–	did not produce any adverse effect
